# Measurements taken from ChEMBL document CHEMBL1201862, “PubChem BioAssay data set” (2004).
# The source made the active and inactive calls.
# Legend:
# [1] = test system: INS1; experiment: beta cell apoptosis inhibitors, cytokine rescue, dose response, luminescence, retest (AID 449756); type: functional, cell-based; conditions: Rattus norvegicus;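 further: cell death triggered by IL-1 beta plus TNF-alpha plus IFN-gamma mixture; protective hits raise ATP signal compared with cytokine alone wells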
# [2] = cytotoxicity in HEK-293T NF-kB-Luc cells, dose response, cytotoxicity control for B/T-cell NF-kB inhibitor project, cell-based, uHTS hits (AID 489019); type: functional;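 further: IC50 reflects cytotoxicity as loss of cell viability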
# [3] = off-target signal loss in HeLa-CEM21 co-culture – HeLa F-luc CTL cells, cherry-picked, counter-screen for HIV-1 Env fusion inhibitor project, dose response (AID 652040); type: functional, cell-based;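 further: potency for signal decrease marking cytotoxic or nonspecific inhibition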
# [4] = control 3'UTR Renilla luciferase suppression, dose response, counter-screen for Shn3 inhibitor project, cell-based, Clone20-Shn3RL, cherry-picked (AID 624133); type: functional
# [5] = target: COUP transcription factor 2 (Homo sapiens, UniProt P24468); experiment: Luminescence-based cell-based high throughput dose response assay to identify inhibitors of COUP-TFII (NR2F2).; type: functional;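 further: HEK293 cells transiently cotransfected with COUP-TFII expression vector and reporter; luciferase reporter luminescence driven by COUP-TFII from the pX2-168 reporter plasmid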
# COUP transcription factor 2, sequence (P24468 whole entry, the tested form may be a part): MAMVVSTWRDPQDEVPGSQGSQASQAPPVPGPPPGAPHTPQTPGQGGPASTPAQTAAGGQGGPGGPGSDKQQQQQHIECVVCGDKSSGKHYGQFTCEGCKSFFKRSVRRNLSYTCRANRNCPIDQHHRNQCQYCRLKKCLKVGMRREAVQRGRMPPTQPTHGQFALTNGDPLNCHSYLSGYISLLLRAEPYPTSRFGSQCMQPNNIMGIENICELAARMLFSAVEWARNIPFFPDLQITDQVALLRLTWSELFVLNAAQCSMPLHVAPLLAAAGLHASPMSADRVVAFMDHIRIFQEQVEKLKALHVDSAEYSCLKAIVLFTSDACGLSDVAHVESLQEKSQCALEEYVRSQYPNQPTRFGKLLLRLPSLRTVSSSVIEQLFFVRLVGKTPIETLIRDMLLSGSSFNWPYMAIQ
# [6] = inhibitors of HIV Env-driven cell fusion, dose response, cherry-pick (AID 652057); type: functional, cell-based
# [7] = HepG2 cell cytotoxicity, dose response, cytotoxicity control for Shn3 inhibitor project, CellTiter-Glo, cherry-picked (AID 624134); type: functional, cell-based
# [8] = test system: Jurkat; experiment: antigen receptor-induced NF-kB inhibitors, dose response, Jurkat, luciferase reporter, luminescence, B- and T-cell (AID 489004); type: functional, cell-based; conditions: Homo sapiens;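 further: NF-kB luciferase reporter Jurkat cells stimulated with PMA plus ionomycin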
# [9] = Shn3 3'UTR reporter inhibitors, dose response, cell-based, Clone20 osteoblasts, firefly luciferase, cherry-picked (AID 624132); type: functional;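 further: firefly luciferase luminescence from reporter carrying the Shn3 3'UTR in osteoblasts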
# [10] = CEM21 cell cytotoxicity, dose response, cytotoxicity control, plate reader, dry powder (AID 687026); type: functional, cell-based
# [11] = ZM109 Env clade C HIV-1 fusion inhibitors, dose response, HeLa effector, CEM target cells, luciferase, cherry-pick (AID 652058); type: functional, cell-based
# [12] = target: Galanin receptor type 2 (Homo sapiens, UniProt O43603); experiment: Dose Response cell-based high-throughput screening assay to identify antagonists of galanin receptor 2 (GALR2). [Related pubchem assays: 828, 866 ]; type: functional
# [13] = inhibitors of clade B AD8 Env fusion, dose response, cell-based, cherry-pick (AID 652062); type: functional;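 further: luciferase signal from cell-cell fusion driven by HIV-1 clade B AD8 Env; potency is for inhibitors of fusion seen as a drop in luminescence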
# [14] = target: Peroxisome proliferator-activated receptor gamma/Nuclear receptor corepressor 2 (Homo sapiens, UniProt P37231+Q9Y618); experiment: Counterscreen for NR2E3 inverse agonists: TR-FRET-based biochemical high throughput dose response assay to identify inverse agonists of the interaction between peroxisome proliferator-activated receptor gamma (PPARg) and nuclear receptor co-repressor 2 (NCOR2).; type: functional
# Peroxisome proliferator-activated receptor gamma/Nuclear receptor corepressor 2, sequence (P37231 whole entry): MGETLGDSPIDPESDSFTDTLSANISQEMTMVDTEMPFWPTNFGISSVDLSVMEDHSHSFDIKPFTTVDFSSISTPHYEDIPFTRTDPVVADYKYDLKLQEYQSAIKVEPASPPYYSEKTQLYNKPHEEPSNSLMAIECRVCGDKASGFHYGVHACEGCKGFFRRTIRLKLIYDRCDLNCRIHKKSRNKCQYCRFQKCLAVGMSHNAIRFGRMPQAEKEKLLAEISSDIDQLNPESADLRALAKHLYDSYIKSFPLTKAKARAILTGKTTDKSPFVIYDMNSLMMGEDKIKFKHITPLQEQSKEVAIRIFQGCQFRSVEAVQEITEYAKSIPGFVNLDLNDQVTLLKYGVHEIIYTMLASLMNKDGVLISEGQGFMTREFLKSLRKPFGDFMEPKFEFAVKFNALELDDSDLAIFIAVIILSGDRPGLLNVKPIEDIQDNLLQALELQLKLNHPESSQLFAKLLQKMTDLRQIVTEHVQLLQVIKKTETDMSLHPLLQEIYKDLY
# Peroxisome proliferator-activated receptor gamma/Nuclear receptor corepressor 2, sequence (Q9Y618 whole entry): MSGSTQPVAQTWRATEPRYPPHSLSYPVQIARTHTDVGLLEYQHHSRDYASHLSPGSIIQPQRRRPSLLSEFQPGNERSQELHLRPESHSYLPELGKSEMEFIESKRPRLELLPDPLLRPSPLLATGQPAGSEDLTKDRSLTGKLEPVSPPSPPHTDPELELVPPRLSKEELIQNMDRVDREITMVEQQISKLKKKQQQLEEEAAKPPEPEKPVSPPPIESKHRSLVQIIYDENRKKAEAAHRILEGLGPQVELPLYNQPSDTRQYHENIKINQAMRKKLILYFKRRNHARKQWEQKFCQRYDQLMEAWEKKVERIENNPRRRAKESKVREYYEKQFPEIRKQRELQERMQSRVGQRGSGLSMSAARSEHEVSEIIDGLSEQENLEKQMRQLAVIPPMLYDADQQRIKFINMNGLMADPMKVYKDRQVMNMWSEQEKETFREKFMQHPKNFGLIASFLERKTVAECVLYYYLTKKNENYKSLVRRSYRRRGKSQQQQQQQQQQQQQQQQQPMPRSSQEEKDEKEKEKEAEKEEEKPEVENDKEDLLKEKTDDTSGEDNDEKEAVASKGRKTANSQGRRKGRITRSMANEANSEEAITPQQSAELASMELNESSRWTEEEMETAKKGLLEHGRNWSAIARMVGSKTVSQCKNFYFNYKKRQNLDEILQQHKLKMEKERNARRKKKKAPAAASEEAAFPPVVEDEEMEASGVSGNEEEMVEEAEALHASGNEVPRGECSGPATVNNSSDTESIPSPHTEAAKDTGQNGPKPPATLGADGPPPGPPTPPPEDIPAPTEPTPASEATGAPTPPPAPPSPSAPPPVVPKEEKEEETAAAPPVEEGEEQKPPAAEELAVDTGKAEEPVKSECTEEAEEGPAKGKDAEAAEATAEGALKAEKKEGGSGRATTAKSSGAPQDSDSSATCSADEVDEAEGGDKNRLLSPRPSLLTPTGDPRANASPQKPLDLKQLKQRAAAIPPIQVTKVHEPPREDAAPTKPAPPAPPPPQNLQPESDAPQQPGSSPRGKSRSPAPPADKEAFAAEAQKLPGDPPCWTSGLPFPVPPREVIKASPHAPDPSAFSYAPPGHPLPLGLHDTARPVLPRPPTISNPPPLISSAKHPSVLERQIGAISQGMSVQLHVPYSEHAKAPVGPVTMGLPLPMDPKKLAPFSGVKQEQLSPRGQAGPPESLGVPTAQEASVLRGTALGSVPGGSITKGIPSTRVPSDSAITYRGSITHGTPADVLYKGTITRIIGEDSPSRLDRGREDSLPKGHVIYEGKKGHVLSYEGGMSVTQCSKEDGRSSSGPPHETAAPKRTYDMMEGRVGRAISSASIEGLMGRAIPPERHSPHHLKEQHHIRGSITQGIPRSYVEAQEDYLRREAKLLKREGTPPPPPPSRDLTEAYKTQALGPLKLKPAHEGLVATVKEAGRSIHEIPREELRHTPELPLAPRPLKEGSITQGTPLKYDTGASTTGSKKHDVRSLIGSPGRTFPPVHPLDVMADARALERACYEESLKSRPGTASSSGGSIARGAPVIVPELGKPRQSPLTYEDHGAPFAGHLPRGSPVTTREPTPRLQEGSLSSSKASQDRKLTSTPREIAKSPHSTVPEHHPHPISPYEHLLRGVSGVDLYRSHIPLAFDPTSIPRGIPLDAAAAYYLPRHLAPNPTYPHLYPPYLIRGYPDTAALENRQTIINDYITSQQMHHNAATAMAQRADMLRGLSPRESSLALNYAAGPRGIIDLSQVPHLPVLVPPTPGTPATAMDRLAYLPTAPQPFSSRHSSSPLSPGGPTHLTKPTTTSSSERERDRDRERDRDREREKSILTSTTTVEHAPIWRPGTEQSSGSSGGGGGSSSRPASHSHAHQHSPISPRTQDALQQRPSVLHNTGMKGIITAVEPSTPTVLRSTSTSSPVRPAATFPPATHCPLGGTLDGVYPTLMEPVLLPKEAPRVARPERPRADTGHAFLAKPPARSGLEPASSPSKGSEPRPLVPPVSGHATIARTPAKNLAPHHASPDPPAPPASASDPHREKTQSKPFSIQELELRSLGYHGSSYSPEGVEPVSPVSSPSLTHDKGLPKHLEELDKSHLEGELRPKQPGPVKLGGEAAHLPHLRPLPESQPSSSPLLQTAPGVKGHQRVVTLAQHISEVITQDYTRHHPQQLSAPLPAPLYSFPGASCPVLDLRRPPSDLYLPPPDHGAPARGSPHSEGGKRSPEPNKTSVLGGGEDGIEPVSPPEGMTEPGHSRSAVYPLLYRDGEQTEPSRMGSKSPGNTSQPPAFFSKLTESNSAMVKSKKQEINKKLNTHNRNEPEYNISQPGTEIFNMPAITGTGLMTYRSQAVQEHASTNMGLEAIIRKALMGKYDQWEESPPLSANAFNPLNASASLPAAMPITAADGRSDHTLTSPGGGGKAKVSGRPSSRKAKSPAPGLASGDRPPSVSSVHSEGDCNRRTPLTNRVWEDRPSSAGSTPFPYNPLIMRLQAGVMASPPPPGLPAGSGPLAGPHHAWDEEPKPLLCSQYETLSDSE
# [15] = target: Photoreceptor-specific nuclear receptor (Homo sapiens, UniProt Q9Y5X4); experiment: NR2E3 inverse agonists, dose response, biochemical, TR-FRET (AID 463256); type: functional
# Photoreceptor-specific nuclear receptor, sequence (Q9Y5X4 whole entry): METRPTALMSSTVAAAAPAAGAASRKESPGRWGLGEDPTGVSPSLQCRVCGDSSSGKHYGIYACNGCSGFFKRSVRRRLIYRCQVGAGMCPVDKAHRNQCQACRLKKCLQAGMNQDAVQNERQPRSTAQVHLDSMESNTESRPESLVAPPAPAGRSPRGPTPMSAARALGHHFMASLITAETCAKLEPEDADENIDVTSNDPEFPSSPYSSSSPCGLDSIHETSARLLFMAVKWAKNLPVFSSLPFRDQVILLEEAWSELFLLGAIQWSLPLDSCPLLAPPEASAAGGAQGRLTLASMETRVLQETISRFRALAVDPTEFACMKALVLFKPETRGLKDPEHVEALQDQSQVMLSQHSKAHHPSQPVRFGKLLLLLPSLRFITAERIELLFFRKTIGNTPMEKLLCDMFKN
# [16] = target: T1, Streptokinase A (Streptococcus pyogenes serotype M1, UniProt P10520); experiment: Absorbance Microorganism-Based Dose Response Follow up to Identify Inhibitors of Streptokinase Expression. [Related pubchem assays: 1677 (Project Summary), 1915, 1914, 1902 (Retest at Dose), 1900 (Counter Screen), 1662 (Primary HTS)]; type: functional, Streptococcus pyogenes M1 GAS
# T1 sequence (P10520 whole entry): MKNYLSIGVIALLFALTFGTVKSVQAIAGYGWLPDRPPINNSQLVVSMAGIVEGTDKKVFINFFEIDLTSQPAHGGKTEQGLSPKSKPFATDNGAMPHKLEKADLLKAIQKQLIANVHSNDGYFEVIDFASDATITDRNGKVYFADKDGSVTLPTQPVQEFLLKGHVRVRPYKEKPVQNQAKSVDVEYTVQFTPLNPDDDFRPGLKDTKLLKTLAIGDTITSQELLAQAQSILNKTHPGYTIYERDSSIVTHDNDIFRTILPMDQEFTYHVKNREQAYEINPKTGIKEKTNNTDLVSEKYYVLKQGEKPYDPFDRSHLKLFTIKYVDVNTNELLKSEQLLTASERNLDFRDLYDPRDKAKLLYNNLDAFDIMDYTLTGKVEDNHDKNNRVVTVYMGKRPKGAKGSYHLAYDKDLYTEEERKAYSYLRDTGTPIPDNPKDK
# [17] = test system: Streptococcus; experiment: Streptococcus pyogenes growth inhibition counter-screen, dose response, counter-screen for streptokinase expression inhibitor project, luminescence, BacTiter-Glo, strain UMAA2166 (AID 2477); type: functional, organism-based
# [18] = cells; type: functional, cell-based; conditions: HEK-CNG
# [19] = target: Neuropeptide Y receptor type 2 (Homo sapiens, UniProt P49146); experiment: NPY-Y2 antagonist potency, selectivity check, dose response, counter-screen for NPY-Y1 antagonist project, cell-based (AID 1278); type: functional
# [20] = target: Neuropeptide Y receptor type 1 (Homo sapiens, UniProt P25929); experiment: NPY-Y1 receptor antagonist potency, dose response, cell-based (AID 1277); type: functional
# [21] = target: Galanin receptor type 3 (Homo sapiens, UniProt O60755); experiment: Fluorescence-based cell-based primary high throughput dose response assay to identify antagonists of the Galanin Receptor 3 (GalR3).; type: functional
# Galanin receptor type 3, sequence (O60755 whole entry): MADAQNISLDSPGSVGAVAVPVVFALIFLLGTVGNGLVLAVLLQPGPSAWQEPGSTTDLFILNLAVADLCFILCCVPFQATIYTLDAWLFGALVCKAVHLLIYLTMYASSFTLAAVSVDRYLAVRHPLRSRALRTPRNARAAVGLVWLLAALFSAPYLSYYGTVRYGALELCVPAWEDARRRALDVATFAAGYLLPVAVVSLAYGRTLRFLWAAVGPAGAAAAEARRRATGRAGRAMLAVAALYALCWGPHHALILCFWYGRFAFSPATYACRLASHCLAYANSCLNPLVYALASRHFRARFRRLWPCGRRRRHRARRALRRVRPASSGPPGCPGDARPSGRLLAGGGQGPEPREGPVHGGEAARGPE
# [22] = target: T2, Short transient receptor potential channel 4 (Mus musculus, UniProt Q9QUQ5); experiment: mouse TRPC4 channel activators, dose response, cell-based, HEK293 TRPC4/mu-opioid, Fluo-4 calcium (AID 434937); type: functional
# T2 sequence (Q9QUQ5 whole entry): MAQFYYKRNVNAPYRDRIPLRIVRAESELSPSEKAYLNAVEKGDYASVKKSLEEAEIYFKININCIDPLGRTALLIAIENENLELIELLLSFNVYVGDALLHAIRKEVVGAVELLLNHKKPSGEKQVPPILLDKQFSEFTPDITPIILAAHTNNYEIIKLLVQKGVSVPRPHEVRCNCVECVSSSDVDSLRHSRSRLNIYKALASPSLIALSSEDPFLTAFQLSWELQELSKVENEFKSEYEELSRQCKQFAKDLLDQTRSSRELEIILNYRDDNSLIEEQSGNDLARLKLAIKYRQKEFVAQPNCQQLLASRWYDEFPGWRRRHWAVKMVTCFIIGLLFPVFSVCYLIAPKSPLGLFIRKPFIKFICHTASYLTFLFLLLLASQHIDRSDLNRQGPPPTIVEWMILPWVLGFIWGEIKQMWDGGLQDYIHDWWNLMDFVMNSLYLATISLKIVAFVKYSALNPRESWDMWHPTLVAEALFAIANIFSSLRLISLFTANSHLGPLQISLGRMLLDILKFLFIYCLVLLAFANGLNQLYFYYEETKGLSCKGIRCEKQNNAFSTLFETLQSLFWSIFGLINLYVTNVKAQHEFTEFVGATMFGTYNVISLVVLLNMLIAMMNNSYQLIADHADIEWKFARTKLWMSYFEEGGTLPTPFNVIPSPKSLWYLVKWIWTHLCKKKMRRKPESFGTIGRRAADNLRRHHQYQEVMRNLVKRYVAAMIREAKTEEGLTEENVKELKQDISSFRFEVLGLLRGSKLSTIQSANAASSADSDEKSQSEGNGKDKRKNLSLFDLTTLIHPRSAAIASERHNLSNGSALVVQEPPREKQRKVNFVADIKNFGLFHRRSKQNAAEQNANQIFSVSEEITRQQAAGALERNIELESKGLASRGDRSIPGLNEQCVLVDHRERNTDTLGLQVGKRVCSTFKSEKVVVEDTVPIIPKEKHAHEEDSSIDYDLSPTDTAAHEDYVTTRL
# [23] = test system: Streptococcus; experiment: Group A Streptococcus viability loss, dose response, counter-screen for streptokinase expression inhibitor project, luminescence, BacTiterGlo (AID 1915); type: functional, organism-based;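 further: potency for reduction of bacterial viability or growth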
# [24] = Fluorescence Cell-Based Dose Response to Identify Inhibitors of Thrombin Receptor-Activating Peptide SFLLRN-Mediated P-Selectin Induction on Platelets. [Related pubchem assays: 1663 (Primary HTS), 1889 (retest at dose ), 1891 (counterscreen), 1678 (Project Summary)]; type: functional
# [25] = target: T1, Streptokinase A; experiment: S. pyogenes streptokinase expression inhibitors, potency, dose response, plasminogen activation absorbance, OD405 (AID 1914); type: functional, Streptococcus pyogenes M1 GAS;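 further: secreted streptokinase activity via plasminogen activation per viability signal from cell pellet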
# [26] = test system: Streptococcus sp. 'group A'; experiment: growth inhibition of control SK(-) GAS strain, dose response, counter-screen for streptokinase expression inhibitor project, luminescence, kanamycin, BacTiterGlo, confirmation (AID 1900); type: functional, organism-based
# [27] = Luminescence Cell-Based Dose Confirmation HTS to Identify Inhibitors of Platelet Dense Granule Release. [Related pubchem assays: 1663 (Primary HTS), 1678 (Summary of Project)]; type: functional
# [28] = target: Luciferin 4-monooxygenase (Photinus pyralis, UniProt P08659); experiment: firefly luciferase enzyme inhibitors, dose response, biochemical, luminescence (AID 1891)
# Luciferin 4-monooxygenase, sequence (P08659 whole entry): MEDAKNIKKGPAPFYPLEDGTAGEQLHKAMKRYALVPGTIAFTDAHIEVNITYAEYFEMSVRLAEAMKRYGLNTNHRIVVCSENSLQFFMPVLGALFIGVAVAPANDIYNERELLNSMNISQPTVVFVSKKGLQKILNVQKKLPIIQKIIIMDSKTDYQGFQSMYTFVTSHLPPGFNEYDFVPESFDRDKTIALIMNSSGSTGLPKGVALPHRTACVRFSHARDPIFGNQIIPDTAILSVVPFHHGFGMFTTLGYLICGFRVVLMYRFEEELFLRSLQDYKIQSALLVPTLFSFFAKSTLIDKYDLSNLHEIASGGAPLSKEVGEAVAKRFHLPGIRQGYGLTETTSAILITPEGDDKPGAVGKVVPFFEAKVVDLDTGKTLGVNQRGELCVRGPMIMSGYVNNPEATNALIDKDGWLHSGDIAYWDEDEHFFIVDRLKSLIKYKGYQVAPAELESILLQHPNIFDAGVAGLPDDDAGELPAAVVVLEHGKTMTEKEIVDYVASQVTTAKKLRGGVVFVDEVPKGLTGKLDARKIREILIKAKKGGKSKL
smiles,measurement,setting,value
CCOc1ccc(S(=O)(=O)NCc2ccncc2)cc1,AC50,[1],1.08 µM (active)
same,IC50,[2],> 80 µM (inactive)
same,AC50,[3],> 70 µM (inactive)
same,AC50,[4],10.5 µM (active)
same,IC50,[5],2.27 µM (active)
same,AC50,[6],1.36 µM (active)
same,AC50,[7],0.603 µM (active)
same,IC50,[8],> 80 µM (inactive)
same,AC50,[9],0.261 µM (active)
same,AC50,[10],> 70 µM (inactive)
same,AC50,[11],< 0.26 µM (active)
same,IC50,[12],> 42 µM (not active)
same,AC50,[13],2.72 µM (active)
CCCS(=O)(=O)N1CCC(C(=O)NCCCN(CC)c2cccc(C)c2)CC1,IC50,[14],> 4.43 µM (active)
same,IC50,[15],> 4.43 µM (active)
CCCOc1ccc(-c2nc(Oc3ccccc3)c3ccccc3n2)cc1,EC50,[16],71.6 µM (active)
same,EC50,[17],> 500 µM (not active)
CC(=O)OCC[N+](C)(C)C,EC50,[18],> 29.9 µM (inactive)
same,IC50,[19],> 35 µM (not active)
same,IC50,[20],> 35 µM (not active)
same,IC50,[21],1.66 µM (active)
same,EC50,[22],0.0667 µM (active)
CC(=O)Oc1ccc(-c2nc(-c3cccnc3)no2)cc1,EC50,[23],17.3 µM (active)
same,EC50,[24],30 µM (not active)
same,EC50,[25],> 150 µM (not active)
same,EC50,[26],4.89 µM (active)
same,EC50,[27],< 0.701 µM (active)
same,EC50,[28],8.16 µM (active)
